Laboratory results from US20260115187A1, “TRICYCLIC SKELETON COMPOUND AND USE THEREOF IN PREPARATION OF ANTITUMOR DRUG” (ZHONGSHAN HOSPITAL, FUDAN UNIVERSITY, priority 2024, published 2026).
pIC50: −log10 of the molar value. Like-named read-outs stand apart in the source and are kept apart here.

How the values were obtained:
[1] = system: MHCC97H KSR2 OE (97H cells overexpressing KSR2); assay: Cell IC50 assay (CCK8 cell viability), MHCC97H KSR2 OE; assay type: cell-based; conditions: Homo sapiens
Procedure: (§1) (1) Cell Preparation: Hepatoma cells (PLC/PRF/5, sourced from the Chinese Academy of Sciences; MHCC97H, sourced from this research institute) in good growth condition are prepared. The cells are trypsinized, diluted, and seeded into 96-well cell culture plates. 1,000-3,000 cells are added per well. The plates are then placed in a cell culture incubator at 37° C. with 5% CO2. Drugs are added after the cells have adhered for 24 h.
(§2) (2) Drug Addition: The drugs are subjected to gradient dilution, typically setting 9 concentrations. Control groups containing no drug medium and medium containing only the drug solvent are also set up. The diluted drugs are added to the cell culture plates seeded the previous day. The plates are incubated for 72 h.
(§3) (3) CCK8 Assay for Cell Viability: CCK8 is mixed with culture medium at a 1:10 ratio. 100 μL of this mixture is added to each well of the cell culture plate. After incubating for 2-4 h, the OD values are measured using a microplate reader.
(§4) (4) Data Analysis: Based on the corresponding OD values, the data are compiled, IC50 curves are plotted, and the IC50 values are obtained.
(§5) (5) IC50 Verification: The theoretical IC50 value is identified from the IC50 curve. Drug concentrations at ½ times, 1 time, and 2 times this theoretical value are used for verification.

[2] = system: PLC/PRF/5 KSR2 OE (PLC cells overexpressing KSR2); assay: Cell IC50 assay (CCK8 cell viability), PLC/PRF/5 KSR2 OE; assay type: cell-based; conditions: Homo sapiens, read-out: IC50 value of cell viability, PLC/PRF/5 KSR2 OE (PLC cells overexpressing KSR2)
Procedure: as §1, §2, §3, §4, §5

[3] = read-out: IC50 value of cell viability, MHCC97H KSR2 OE (97H cells overexpressing KSR2)
[4] = hepatoma cells, 72 h incubation, CCK8, read-out: IC50 value of cell viability, MHCC97H KSR2 OE (97H cells overexpressing KSR2)
[5] = PLC-PRF-5, hepatoma cells, 72 h incubation, CCK8

Row | SMILES | pIC50 [1, 3] | pIC50 ([2]; PLC-PRF-5, 72 h) | pIC50 [1, 4] | pIC50 [2, 5]
1 | Cn1nc(C(=O)NCCCN2CCN(C3CCC(F)(F)CC3)CC2)c2c1-c1ccccc1SC2 [Compound 1] | 4.39 | 4.35 |  | 
2 | Cn1nc(C(=O)NCCCN2CCN(C3CCOCC3)CC2)c2c1-c1ccccc1SC2 [Compound 2] | < 4.00 | 4.08 |  | 
3 | Cn1nc(C(=O)NCCCN2CCN(C3CCCC3)CC2)c2c1-c1ccccc1SC2 [Compound 3] |  |  | 4.25 | 4.49
4 | Cn1nc(C(=O)NCCCN2CCN(C3CC4(CCC4)C3)CC2)c2c1-c1ccccc1SC2 [Compound 4] |  |  | 4.82 | 4.66
5 | Cn1nc(C(=O)NCCCN2CCN(CC3CC3)CC2)c2c1-c1ccccc1SC2 [Compound 5] | 4.36 | 4.60 |  | 
6 | Cn1nc(C(=O)NCCCN2CCN(C3CCC3)CC2)c2c1-c1ccccc1SC2 [Compound 6] | 4.15 | 4.38 |  | 
7 | Cn1nc(C(=O)NCCCN2CCN(C3CCCCC3)CC2)c2c1-c1ccccc1S(=O)(=O)C2 [Compound 7] |  |  | 4.06 | 4.07
8 | Cn1nc(C(=O)NCCCN2CCN(C3CCCCC3)CC2)c2c1-c1ccccc1SC2 [Compound 8] | 4.21 | 4.21 |  | 
9 | Cn1nc(C(=O)NCCCN2CCN(Cc3ccccc3)CC2)c2c1-c1ccccc1SC2 [Compound 10] | 4.42 | 4.80 |  | 
10 | Cn1nc(C(=O)NCCN2CCN(C3CCCCC3)CC2)c2c1-c1ccccc1SC2 [Compound 11] | 4.21 | 4.46 |  | 
11 | CN(CCCN1CCN(C2CCCCC2)CC1)C(=O)c1nn(C)c2c1CSc1ccccc1-2 [Compound 12] |  |  | 4.07 | 4.25
12 | Cn1nc(C(=O)NCCCN2CCC(N3CCCCC3)CC2)c2c1-c1ccccc1SC2 [Compound 13] |  |  | 5.70 | 5.70
13 | CCn1nc(C(=O)NCCCN2CCN(C3CCCCC3)CC2)c2c1-c1ccccc1SC2 [Compound 14] |  |  | 4.85 | 4.41
14 | O=C(NCCCN1CCN(C2CCCCC2)CC1)c1nn(CC2CC2)c2c1CSc1ccccc1-2 [Compound 15] |  |  | 4.41 | 5.00
15 | Cn1nc(C(=O)NCCCN2CCN(C3CCCCC3)CC2)c2c1-c1ccccc1OC2 [Compound 16] |  |  | 4.34 | 4.59
16 | Cn1nc(C(=O)NCCCN2CCN(C3CCCCC3)CC2)c2c1-c1ccccc1CC2 [Compound 17] |  |  | 4.24 | 4.68
17 | Cn1nc(C(=O)NCC(O)CN2CCN(c3ccccc3)CC2)c2c1-c1ccccc1SC2 (stereo not shown) [Compound 18] |  |  | 4.40 | 4.38
18 | Cn1nc(C(=O)NCCCN2CCN(c3ccccn3)CC2)c2c1-c1ccccc1SC2 [Compound 19] |  |  | 4.40 | 4.40
19 | Cn1nc(C(=O)NCCCN2CCN(c3cccnc3)CC2)c2c1-c1ccccc1SC2 [Compound 20] |  |  | 4.49 | 4.54
20 | Cn1nc(C(=O)NCCCN2CCN(c3ccncc3)CC2)c2c1-c1ccccc1SC2 [Compound 21] |  |  | 5.22 | 5.15

Row | SMILES | pIC50 [1, 3] | pIC50 ([2]; PLC-PRF-5, 72 h) | pIC50 [1, 4] | pIC50 [2, 5]
21 | Cn1nc(C(=O)NCCCN2CCN(c3ccccc3Cl)CC2)c2c1-c1ccccc1SC2 [Compound 22] |  |  | 4.52 | 4.82
22 | Cn1nc(C(=O)NCC(F)(F)CN2CCN(c3ccccc3)CC2)c2c1-c1ccccc1SC2 [Compound 23] |  |  | 5.10 | 5.10
23 | Cn1nc(C(=O)NCCCN2CCN(c3cccc(Cl)c3)CC2)c2c1-c1ccccc1SC2 [Compound 24] |  |  | 4.41 | 4.74
24 | Cn1nc(C(=O)NCCCN2CCN(c3ccc(Cl)cc3)CC2)c2c1-c1ccccc1SC2 [Compound 25] |  |  | 4.43 | 4.70
25 | Cn1nc(C(=O)NCCCN2CCN(c3ccc(C(F)(F)F)cc3)CC2)c2c1-c1ccccc1SC2 [Compound 26] |  |  | < 4.00 | 4.85
26 | COc1ccc(N2CCN(CCCNC(=O)c3nn(C)c4c3CSc3ccccc3-4)CC2)cc1 [Compound 27] |  |  | 4.89 | 4.51
27 | Cn1nc(C(=O)NCCCN2CCN(c3ncccn3)CC2)c2c1-c1ccccc1SC2 [Compound 28] |  |  | 4.51 | 4.96
28 | Cn1nc(C(=O)NCCCN2CCN(c3ccc(C#N)cc3)CC2)c2c1-c1ccccc1SC2 [Compound 29] |  |  | 5.70 | 4.39
29 | CN1CCN(C2CCN(CCCNC(=O)c3nn(C)c4c3CSc3ccccc3-4)CC2)CC1 [Compound 30] |  |  | 5.22 | 5.05
30 | Cn1nc(C(=O)NCCCN2CCC(c3ccccc3)CC2)c2c1-c1ccccc1SC2 [Compound 31] |  |  | 4.72 | 4.68
31 | Cn1nc(C(=O)NCCCN2CCC(O)(c3ccccc3)CC2)c2c1-c1ccccc1SC2 [Compound 32] |  |  | 4.80 | 4.77
32 | CN1CCN(C2CCN(CC(F)(F)CNC(=O)c3nn(C)c4c3CSc3ccccc3-4)CC2)CC1 [Compound 33] |  |  | 4.74 | 4.72
33 | Cn1nc(C(=O)NCC(F)(F)CN2CCC(N3CCCCC3)CC2)c2c1-c1ccccc1SC2 [Compound 34] |  |  | 4.85 | 4.92
34 | Cn1nc(C(=O)NCC(F)(F)CN2CCC(N3CCOCC3)CC2)c2c1-c1ccccc1SC2 [Compound 35] |  |  | 4.66 | 4.55
35 | Cn1nc(C(=O)NCCCN2CCC(N3CCCCC3)C(F)(F)C2)c2c1-c1ccccc1SC2 (stereo not shown) [Compound 36] |  |  | 4.15 | 4.21
36 | Cn1nc(C(=O)NCC(F)(F)CN2CCC(N3CCC(F)(F)CC3)CC2)c2c1-c1ccccc1SC2 [Compound 37] |  |  | 4.55 | 4.72
37 | Cn1nc(C(=O)NCCCN2CCC(N3CCCC3)CC2)c2c1-c1ccccc1SC2 [Compound 38] |  |  | 5.40 | 5.52
38 | CC(CNC(=O)c1nn(C)c2c1CSc1ccccc1-2)CN1CCN(c2ccccc2)CC1 (stereo not shown) [Compound 40] |  |  | < 4.00 | 4.68
39 | Cn1nc(C(=O)NCCCN2CCC(N3CCNCC3)CC2)c2c1-c1ccccc1SC2 [Compound 41] |  |  | 5.15 | 5.10
40 | Cn1nc(C(=O)NCCCN2CCC(N3CCOCC3)CC2)c2c1-c1ccccc1SC2 [Compound 42] |  |  | 4.41 | 4.37

Row | SMILES | pIC50 [1, 3] | pIC50 ([2]; PLC-PRF-5, 72 h) | pIC50 [1, 4] | pIC50 [2, 5]
41 | Cn1nc(C(=O)NCCCN2CCC(N3CCC(F)(F)C3)CC2)c2c1-c1ccccc1SC2 [Compound 43] |  |  | 4.37 | 4.39
42 | CCN1CCN(C2CCN(CCCNC(=O)c3nn(C)c4c3CSc3ccccc3-4)CC2)CC1 [Compound 44] |  |  | 6.70 | 5.70
43 | CN(C)C1CCN(CCCNC(=O)c2nn(C)c3c2CSc2ccccc2-3)CC1 [Compound 45] |  |  | 5.22 | 5.30
44 | Cn1nc(C(=O)NCCCN2CCC(N3CCC(O)C3)CC2)c2c1-c1ccccc1SC2 (stereo not shown) [Compound 46] |  |  | 5.22 | 5.70
45 | Cn1nc(C(=O)NCCCN2CCC(N3CCC3)CC2)c2c1-c1ccccc1SC2 [Compound 47] |  |  | 5.40 | 5.70
46 | Cn1nc(C(=O)N2CC(CN3CCC(N4CCCC4)CC3)C2)c2c1-c1ccccc1SC2 [Compound 49] |  |  | 5.15 | 5.15
47 | CN1CCN(C2CCN(CCCNC(=O)c3nn(C)c4c3COc3ccccc3-4)CC2)CC1 [Compound 50] |  |  | 5.22 | 5.15
48 | Cn1nc(C(=O)NCC2CC(N3CCC(N4CCCC4)CC3)C2)c2c1-c1ccccc1SC2 (stereo not shown) [Compound 51] |  |  | 6.00 | 6.00
49 | CN(C)C1CCN(CCCNC(=O)c2nn(C)c3c2CSc2ccccc2-3)C1 (stereo not shown) [Compound 52] |  |  | 4.30 | 4.23
50 | CN(C)CC1CCN(CCCNC(=O)c2nn(C)c3c2CSc2ccccc2-3)C1 (stereo not shown) [Compound 53] |  |  | 4.20 | 4.04
51 | CN(C)C1CN(CCCNC(=O)c2nn(C)c3c2CSc2ccccc2-3)C1 [Compound 54] |  |  | 5.30 | 5.22
52 | Cn1nc(C(=O)NCCCN2CCC(N)CC2)c2c1-c1ccccc1SC2 [Compound 55] |  |  | 5.30 | 5.40
53 | Cn1nc(C(=O)NCCCN2CCC(N3CCN(S(C)(=O)=O)CC3)CC2)c2c1-c1ccccc1SC2 [Compound 56] |  |  | 4.21 | 4.30
54 | Cn1nc(C(=O)NCCCN2CCC(NC(=O)C3CC3)CC2)c2c1-c1ccccc1SC2 [Compound 57] |  |  | 4.68 | 5.70
55 | Cn1nc(C(=O)NCCCN2CCC(N3CCN(Cc4ccccc4)CC3)CC2)c2c1-c1ccccc1SC2 [Compound 58] |  |  | 5.70 | 5.70
56 | CC(=O)N1CCN(C2CCN(CCCNC(=O)c3nn(C)c4c3CSc3ccccc3-4)CC2)CC1 [Compound 59] |  |  | 4.51 | 4.96
57 | CC(C)N1CCN(C2CCN(CCCNC(=O)c3nn(C)c4c3CSc3ccccc3-4)CC2)CC1 [Compound 60] |  |  | 5.40 | 5.70
58 | CCN1CCN(C2CCN(C3CC(CNC(=O)c4nn(C)c5c4CSc4ccccc4-5)C3)CC2)CC1 (stereo not shown) [Compound 61] |  |  | 6.00 | 6.70
59 | Cn1nc(C(=O)NCCCN2CCC(N3CCN(C4CC4)CC3)CC2)c2c1-c1ccccc1SC2 [Compound 63] |  |  | 5.00 | 4.92
